From US20070270418A1, “Inhibitors of P38 and Methods of Using the Same” (priority 2003, published 2007)

What follows are molecules tested against T1, JNK2α2 (Homo sapiens, UniProt P45984) (assay: Kinase selectivity, ATF2 phosphorylation ELISA).
T1 construct: purchased Upstate (Charlottesville, Va.)
Assay type: biochemical
Procedure: (§1) All kinases and the substrate ATF2 are acquired from Upstate (Charlottesville, Va.). p38 MAP Kinases are recombinant human full-length proteins with an amino-terminal GST fusion, expressed in and purified from E. coli. ATF2 is a GST fusion protein containing amino acids 19-96 of human ATF2 expressed in E. coli. All proteins were aliquoted and stored at −80° C.
(§2) p38 MAP Kinase assays are performed using an assay buffer containing 25 mM HEPES, pH 7.5, 10 mM MgCl2, 2 mM DTT, 20 mM β-glycerophosphate, 0.1 mM Na3VO4, 40 μM ATP and 1.25 μM of ATF2, together with 6 ng of p38α protein, 12 ng p38β protein, 1.5 ng p38γ, or 0.4 ng JNK2α2. Compounds are serially diluted in DMSO and 2 μL of test compound at 25× final concentration is used. The vehicle control receives DMSO only. Test compounds are pre-incubated with 20 μl of enzyme in kinase buffer (25 mM HEPES, pH 7.5, 10 mM MgCl2, 2 mM DTT, 20 mM 3-glycerophosphate and 0.1 mM Na3VO4) at room temperature for 15 minutes. […] The reactions are incubated for 30 minutes at 37° C. and terminated by the addition of 18 μl of 200 mM EDTA. An ELISA method is used to measure the phosphorylation of ATF2 at Thr 69. High binding 96-well plates (Corning 3369) are coated with 50 μl of kinase reaction for 1 hour at 37° C. The coated plates are washed with 200 μl washing buffer (25 mM Tris HCl, pH 8.3, 192 mM glycine, 0.1% SDS and 0.05% Tween-20) three times. The plates are then washed three times with SuperBlock in TBS (Pierce, 37535). After blocking, plates are incubated with 50 μl of rabbit anti-phospho-ATF2 antibody (Cell Signaling, 9221 L, 1:500) for 30 minutes at 37° C. Plates are washed three times with washing buffer prior to incubation with 50 μl HRP-conjugated goat anti-rabbit antibody (Cell Signaling, 7074, 1:500) for 30 minutes at 37° C. Plates are then washed three times with washing buffer before incubation with 50 μl of Ultra TMB-ELISA (Pierce, 34028) for 8 minutes at room temperature. Finally, 50 μl of phosphoric acid (1 M) is added to stop reactions and plate absorbance is read at 450 nm on a SpectraMax 250 plate reader.
(§3) A selectivity panel is used to test the cross-reactivity of compounds of the invention with the β and γ isoforms of p38 MAP kinase, Src^p60 and JNK2α2. The p38β, p38γ, and JNK2α2 assays are described in Example 4. The Src^p60 assay measures the ability of compounds to inhibit Src^p60-catalyzed phosphorylation of a peptide substrate.

T1 sequence (P45984 whole entry): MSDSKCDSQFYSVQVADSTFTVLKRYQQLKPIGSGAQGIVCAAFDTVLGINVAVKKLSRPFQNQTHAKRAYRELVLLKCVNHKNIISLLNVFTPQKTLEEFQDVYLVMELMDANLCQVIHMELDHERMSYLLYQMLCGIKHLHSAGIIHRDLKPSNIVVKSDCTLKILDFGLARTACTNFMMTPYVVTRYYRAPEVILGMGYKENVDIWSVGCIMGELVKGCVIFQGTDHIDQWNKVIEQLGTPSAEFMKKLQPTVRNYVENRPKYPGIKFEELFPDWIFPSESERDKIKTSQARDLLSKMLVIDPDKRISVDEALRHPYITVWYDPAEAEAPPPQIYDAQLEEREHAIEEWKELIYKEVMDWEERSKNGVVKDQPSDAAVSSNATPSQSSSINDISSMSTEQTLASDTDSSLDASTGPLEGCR

Structure (SMILES) | IC50
CS(=O)(=O)N1CCC(Nc2nccc(-c3c(-c4ccc(F)cc4)nc4occn34)n2)CC1 [CCLXXIX] | 0.0233 µM
CN1[C@@H]2CC[C@H]1C[C@@H](Nc1nccc(-c3c(-c4ccc(F)cc4)nc4occn34)n1)C2 [CCLXXXI] | 0.762 µM
Fc1ccc(-c2nc3occn3c2-c2ccnc(N[C@@H]3CN4CCC3CC4)n2)cc1 [LXXI] | 1.59 µM
Fc1ccc(-c2nc3occn3c2-c2ccnc(NC3CN4CCC3CC4)n2)cc1 (stereo not drawn) [LXXXIV] | 2.26 µM
Fc1ccc(-c2nc3occn3c2-c2ccnc(N[C@H]3CN4CCC3CC4)n2)cc1 [LXXXVII] | 1.04 µM

Each molecule was assayed against T2, p38γ (Homo sapiens, UniProt P53778) (assay: Kinase selectivity, ATF2 phosphorylation ELISA).
T2 construct: p38 MAP Kinases are recombinant human full-length proteins with an amino-terminal GST fusion; GST (N); purchased Upstate (Charlottesville, Va.); host or cells: E. coli
T2 sequence (P53778 1-367): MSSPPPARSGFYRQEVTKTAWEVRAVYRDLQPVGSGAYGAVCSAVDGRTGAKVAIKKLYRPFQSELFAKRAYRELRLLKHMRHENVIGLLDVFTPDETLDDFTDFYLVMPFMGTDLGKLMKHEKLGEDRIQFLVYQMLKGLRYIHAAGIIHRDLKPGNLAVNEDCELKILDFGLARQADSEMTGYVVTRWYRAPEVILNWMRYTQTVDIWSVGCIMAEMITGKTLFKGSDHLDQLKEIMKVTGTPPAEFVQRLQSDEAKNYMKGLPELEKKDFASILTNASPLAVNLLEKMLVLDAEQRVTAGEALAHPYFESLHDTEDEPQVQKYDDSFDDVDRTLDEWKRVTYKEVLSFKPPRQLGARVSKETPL
Assay type: biochemical
Procedure: as §1, §2, §3

Structure (SMILES) | IC50
CS(=O)(=O)N1CCC(Nc2nccc(-c3c(-c4ccc(F)cc4)nc4occn34)n2)CC1 [CCLXXIX] | > 100 µM
CN1[C@@H]2CC[C@H]1C[C@@H](Nc1nccc(-c3c(-c4ccc(F)cc4)nc4occn34)n1)C2 [CCLXXXI] | > 100 µM
Fc1ccc(-c2nc3occn3c2-c2ccnc(N[C@@H]3CN4CCC3CC4)n2)cc1 [LXXI] | > 519 µM
Fc1ccc(-c2nc3occn3c2-c2ccnc(NC3CN4CCC3CC4)n2)cc1 (stereo not drawn) [LXXXIV] | > 81.3 µM
Fc1ccc(-c2nc3occn3c2-c2ccnc(N[C@H]3CN4CCC3CC4)n2)cc1 [LXXXVII] | 59.5 µM

The molecules below were run against T3, Src^p60 (Homo sapiens, UniProt P12931) (assay: Src^p60 peptide phosphorylation, time resolved fluorescence).
T3 construct: purchased Upstate (Charlottesville, Va.)
Assay type: biochemical
Procedure: as §3
Compounds are serially diluted in DMSO and 1 μL of test compound at 25× final concentration is used. The vehicle control receives DMSO only. Test compounds are pre-incubated with 10 μL of water containing 5.3 units of Src^p60 enzyme (Upstate, Charlottesville, Va.) at room temperature for 15 minutes. […] The reactions are incubated for 1 hr at room temperature. Time resolved fluorescence is read at 665 and 615 nm using the Victor V program LANCE 615/665 on a Victor^2 V plate reader (Perkin Elmer Life Sciences).

T3 sequence (P12931 whole entry): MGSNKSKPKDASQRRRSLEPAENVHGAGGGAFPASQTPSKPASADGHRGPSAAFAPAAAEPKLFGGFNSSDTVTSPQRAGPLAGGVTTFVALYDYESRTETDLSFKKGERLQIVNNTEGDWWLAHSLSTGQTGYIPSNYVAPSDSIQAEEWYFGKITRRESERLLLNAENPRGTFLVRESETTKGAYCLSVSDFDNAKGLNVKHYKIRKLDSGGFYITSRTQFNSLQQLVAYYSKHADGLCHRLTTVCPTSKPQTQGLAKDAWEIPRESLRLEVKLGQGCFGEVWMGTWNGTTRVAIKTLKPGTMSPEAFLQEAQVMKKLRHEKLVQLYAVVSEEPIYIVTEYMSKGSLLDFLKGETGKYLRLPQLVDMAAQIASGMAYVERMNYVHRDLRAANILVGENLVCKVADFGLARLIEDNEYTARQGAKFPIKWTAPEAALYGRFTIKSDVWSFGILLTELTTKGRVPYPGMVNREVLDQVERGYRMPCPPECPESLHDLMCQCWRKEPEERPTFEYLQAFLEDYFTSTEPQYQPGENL

Structure (SMILES) | IC50
CS(=O)(=O)N1CCC(Nc2nccc(-c3c(-c4ccc(F)cc4)nc4occn34)n2)CC1 [CCLXXIX] | > 64 µM
CN1[C@@H]2CC[C@H]1C[C@@H](Nc1nccc(-c3c(-c4ccc(F)cc4)nc4occn34)n1)C2 [CCLXXXI] | > 9.03 µM
Fc1ccc(-c2nc3occn3c2-c2ccnc(N[C@@H]3CN4CCC3CC4)n2)cc1 [LXXI] | 12.9 µM
Fc1ccc(-c2nc3occn3c2-c2ccnc(NC3CN4CCC3CC4)n2)cc1 (stereo not drawn) [LXXXIV] | > 29.5 µM
Fc1ccc(-c2nc3occn3c2-c2ccnc(N[C@H]3CN4CCC3CC4)n2)cc1 [LXXXVII] | 25.9 µM
